Read-outs that look alike come from different tables or passages of the source. Marks after values point to notes of the source that are not given here.
What was measured:
Type in all cases: in vivo
Puccinia recondita = assay: Foliar fungal disease test on plants: Puccinia recondita (Pr)
Procedure: (§1) The compounds were tested against a variety of foliar fungal diseases of plants. The technique employed was as follows.
(§2) The plants were grown in John Innes Potting Compost (No.1 or 2) in 4 cm diameter minipots. The test compounds were formulated either by bead milling with aqueous Dispersol T or as a solution in acetone or acetone/ethanol which was diluted to the required concentration immediately before use. For the foliage diseases, the formulations (100 ppm active ingredient except where otherwise indicated) were sprayed onto the foliage and applied to the roots of the plants in the soil. The sprays were applied to maximum retention and the root drenches to a final concentration equivalent to approximately 40 ppm a.i. in dry soil. Tween 20, to give a final concentration of 0.05%, was added when the sprays were applied to cereals.
(§3) For most of the tests the compound was applied to the soil (roots) and to the foliage (by spraying) one or two days before the plant was inoculated with the disease. An exception was the test on Erysiphe graminis in which the plants were inoculated 24 hours before treatment. Foliar pathogens were applied by spray as spore suspensions onto the leaves of test plants. After inoculation, the plants were put into an appropriate environment to allow infection to proceed and then incubated until the disease was ready for assessment. The period between inoculation and assessment varied from four to fourteen days according to the disease and environment.
(§4) The disease control vas recorded by the following grading:
(§5) 3=trace-5% of disease on untreated plants
(§6) 2=6-25% of disease on untreated plants
(§7) 1=26-59% of disease on untreated plants
(§8) 0=60-100% of disease on untreated plants

Erysiphe graminis hordei = assay: Foliar fungal disease test on plants: Erysiphe graminis hordei (Egh)
Procedure: as §1, §2, §3, §4, §5, §6, §7, §8
Egh Erysiphe graminis hordei

Venturia inaequalis = assay: Foliar fungal disease test on plants: Venturia inaequalis (Vi)
Procedure: as §1, §2, §3, §4, §5, §6, §7, §8

Plasmopara viticola = assay: Foliar fungal disease test on plants: Plasmopara viticola (Pv)
Procedure: as §1, §2, §3, §4, §5, §6, §7, §8

[1] = test system: Phytophthora infestans lycopersici
Pyricularia oryzae = test system: Pyricularia oryzae
[2] = 100 ppm active ingredient foliar spray plus root drench (approx. 40 ppm a.i. in dry soil), one or two days before inoculation
[3] = 100 ppm active ingredient foliar spray plus root drench (approx. 40 ppm a.i. in dry soil), plants inoculated 24 hours before treatment

Row | SMILES | disease control grading, Pr (Puccinia recondita) (Puccinia recondita; [2]) | disease control grading, Egh (Erysiphe graminis hordei) (Erysiphe graminis hordei; [3]) | disease control grading, Vi (Venturia inaegualis) (Venturia inaequalis; [2]) | disease control grading, Pv (Plasmopara viticola) (Plasmopara viticola; [2]) | disease control grading, Pil (Phytophthora infestans lycopersici) [1, 2] | disease control grading, Po (Pyricularia oryzae) (Pyricularia oryzae; [2]) | disease control grading, Pr (Puccinia recondita) (Puccinia recondita; 10 ppm foliar application only) | disease control grading, Egh (Erysiphe graminis hordei) (Erysiphe graminis hordei; 10 ppm foliar application only) | disease control grading, Po (Pyricularia oryzae) (Pyricularia oryzae; 10 ppm foliar application only) | disease control grading, Vi (Venturia inaegualis) (Venturia inaequalis; 10 ppm foliar application only) | disease control grading, Pv (Plasmopara viticola) (Plasmopara viticola; 10 ppm foliar application only) | disease control grading, Pil (Phytophthora infestans lycopersici) ([1]; 10 ppm foliar application only)
1 | CO/C=C(/C(=O)OC)c1ccccc1Oc1cc([S+]([O-])c2ccccn2)ncn1 (stereo not shown) [355 of Table I] | 0 (0=60-100% of disease on untreated plants) | 4 (4=no disease) | 4 (4=no disease) | 0 (0=60-100% of disease on untreated plants) | 0 (0=60-100% of disease on untreated plants) |  |  |  |  |  |  | 
2 | CO/C=C(/C(=O)OC)c1ccccc1Oc1cc(OCCc2ccccc2C#N)ncn1 [357 of Table I] | 4 (4=no disease) | 4 (4=no disease) | 4 (4=no disease) | 4 (4=no disease) | 4 (4=no disease) | 4 (4=no disease) |  |  |  |  |  | 
3 | CO/C=C(/C(=O)OC)c1ccccc1Oc1cc([S+]([O-])c2ccccc2)ncn1 (stereo not shown) [2 of Table I] |  |  |  |  |  |  | 0^a (0=60-100% of disease on untreated plants) | 0^a (0=60-100% of disease on untreated plants) | 0^a (0=60-100% of disease on untreated plants) | 0^a (0=60-100% of disease on untreated plants) | 4^a (4=no disease) | 0^a (0=60-100% of disease on untreated plants)
4 | CO/C=C(/C(=O)OC)c1ccccc1Oc1cc(Nc2ccccc2OC)ncn1 [380 of Table I] | 4 (4=no disease) | 4 (4=no disease) | 4 (4=no disease) | 4 (4=no disease) | 3 (3=trace-5% of disease on untreated plants) | 4 (4=no disease) |  |  |  |  |  | 
5 | CO/C=C(/C(=O)OC)c1ccccc1Oc1cc(OCCc2ccccc2Cl)ncn1 [368 of Table I] | 4 (4=no disease) | 4 (4=no disease) | 4 (4=no disease) | 4 (4=no disease) | 3 (3=trace-5% of disease on untreated plants) | 3 (3=trace-5% of disease on untreated plants) |  |  |  |  |  | 
6 | CO/C=C(/C(=O)OC)c1ccccc1Oc1cc(OCCc2ccccc2F)ncn1 [366 of Table I] | 4 (4=no disease) | 4 (4=no disease) | 4 (4=no disease) | 4 (4=no disease) | 4 (4=no disease) | 4 (4=no disease) |  |  |  |  |  | 
7 | CO/C=C(/C(=O)OC)c1ccccc1Oc1cc(OC(C#N)c2ccccc2)ncn1 (stereo not shown) [369 of Table I] | 4 (4=no disease) | 4 (4=no disease) | 4 (4=no disease) | 4 (4=no disease) | 3 (3=trace-5% of disease on untreated plants) | 4 (4=no disease) |  |  |  |  |  | 
8 | CO/C=C(/C(=O)OC)c1ccccc1Oc1cc(OCc2c(F)cccc2F)ncn1 [374 of Table I] | 4 (4=no disease) | 4 (4=no disease) | 4 (4=no disease) | 4 (4=no disease) | 4 (4=no disease) | 4 (4=no disease) |  |  |  |  |  | 
9 | CO/C=C(/C(=O)OC)c1ccccc1Oc1cc(OCCc2ccccc2[N+](=O)[O-])ncn1 [358 of Table I] | 4 (4=no disease) | 4 (4=no disease) | 4 (4=no disease) | 4 (4=no disease) | 4 (4=no disease) | 4 (4=no disease) |  |  |  |  |  | 
10 | CO/C=C(/C(=O)OC)c1ccccc1Oc1cc(Sc2ccccc2C#N)ncn1 [134 of Table I] | 4 (4=no disease) | 4 (4=no disease) |  | 4 (4=no disease) |  | 2 (2=6-25% of disease on untreated plants) |  |  |  |  |  | 
11 | CO/C=C(/C(=O)OC)c1ccccc1Oc1cc(NC(=S)c2ccccc2O)ncn1 [367 of Table I] |  |  |  |  |  |  | 4^a (4=no disease) | 3^a (3=trace-5% of disease on untreated plants) | 0^a (0=60-100% of disease on untreated plants) | 2^a (2=6-25% of disease on untreated plants) | 4^a (4=no disease) | 0^a (0=60-100% of disease on untreated plants)
12 | CO/C=C(/C(=O)OC)c1ccccc1Oc1cc(OCCc2ccccc2C)ncn1 [364 of Table I] | 4 (4=no disease) | 4 (4=no disease) | 4 (4=no disease) | 4 (4=no disease) | 4 (4=no disease) | 4 (4=no disease) |  |  |  |  |  | 
13 | CO/C=C(/C(=O)OC)c1ccccc1Oc1cc(OCCc2ccccc2)ncn1 [96 of Table I] | 4 (4=no disease) | 4 (4=no disease) |  | 4 (4=no disease) | 4 (4=no disease) | 3 (3=trace-5% of disease on untreated plants) |  |  |  |  |  | 
14 | CO/C=C(/C(=O)OC)c1ccccc1Oc1cc(OS(=O)(=O)c2ccccc2C#N)ncn1 [381 of Table I] | 2 (2=6-25% of disease on untreated plants) | 0 (0=60-100% of disease on untreated plants) | 0 (0=60-100% of disease on untreated plants) | 0 (0=60-100% of disease on untreated plants) | 0 (0=60-100% of disease on untreated plants) | 2 (2=6-25% of disease on untreated plants) |  |  |  |  |  | 
15 | CO/C=C(/C(=O)OC)c1ccccc1Oc1cc(Nc2ccccc2O)ncn1 [379 of Table I] | 3 (3=trace-5% of disease on untreated plants) | 0 (0=60-100% of disease on untreated plants) |  | 4 (4=no disease) | 0 (0=60-100% of disease on untreated plants) | 0 (0=60-100% of disease on untreated plants) |  |  |  |  |  | 

Reference: patent US6777412B2 (priority 1990, dated 2004)
